Experimental data: patent publication US5369112A, “Method of treating cataracts caused by active oxygen” (Mitsubishi Gas Chemical Company, Inc., priority 1991, dated 1994)
Like-named read-outs stand apart in the source and are kept apart here.

Legend:
[1] = Superoxide scavenging activity (hypoxanthine-xanthine oxidase, DMPO spin trapping, ESR); format: biochemical; conditions: pH 7.3, read-out: O2^- scavenging activity IC50
Text: Activity of PQQ esters to scavenge superoxide (O2^-) produced in the system of hypoxanthinexanthine oxidase was examined by spin trapping method [using 5,5-dimethyl-l-pyrroline-N-oxide (hereinafter referred to as "DMPO") as a spin trapping agent] where electron spin resonance (hereinafter referred to as "ESR") was used.
Hypoxanthine+2O2 →2O2^- +uric acid (xanthine oxidase)
The following reagents were successively put in a test tube and stirred after addition of the hypoxanthine 7 to initiate the reaction and the reaction mixture was transferred to a quartz cell used for measurement of ESR.
Superoxide scavenging activity of OPQ and esters thereof was examined in the same manner as in Example 1.

[2] = Hydroxy radical scavenging activity (H2O2-(Fe^2+-DTPA), DMPO spin trapping, ESR); format: biochemical; conditions: pH 7.3, read-out: .OH scavenging activity IC50
Text: Activity of PQQ esters to scavenge hydroxy radical (·OH) produced in the system of H2 O2 --(Fe^2+ -DTPA) was examined by spin trapping method [using 5,5-dimethyl-1-pyrroline-N-oxide (hereinafter referred to as "DMPO") as a spin trapping agent] where electron spin resonance (hereinafter referred to as "ESR") was used. DTPA means diethylenetriamine-pentaacetic acid.
H2 O2 +Fe^2 -DTPA complex→·OH+OH^-
The following reagents were successively put in a test tube and stirred after addition of H2 O2 6 to initiate the reaction and the reaction mixture was transferred to a quartz cell used for measurement of ESR.
Hydroxy radical scavenging activity of OPQ and esters thereof was examined in the same manner as in Example 3.

[3] = test system: Hydrocortisone-Induced Cataract of Hen's Eggs; test: Effect on hydrocortisone-induced cataract of hen's eggs; format: in vivo, white leghorn (hen's eggs); conditions: 1 μmole at 3, 10 and 20 h after hydrocortisone; lens at 48 h
Description: Fertilized eggs of white leghorn were incubated in an incubator at a temperature of 37° C. and 70% in humidity. The day on which the incubation was started was taken to be one day old. […] eggs of 15 day old were prepared and divided into 7 groups, each of which included 5 eggs (A-G). A small hole was bored through the eggshell above air chamber of the eggs of groups B-G and 0.25 μmole (as 0.2 ml solution) of hydrocortisone sodium succinate was administered into the air chamber through the hole and then, the hole was sealed with a cellophane tape. To The eggs of groups C-G was administered 1 μmole of following compounds after 3, 10 and 20 hours from administration of hydrocortisone sodium succinate. That is, 0.2 ml of a solution of PQQ·2Na in distilled water was administered to the eggs of group C, 0.2 ml of a suspension of PQQ trimethyl ester in 1% Tween 80 solution was administered to the eggs of group D, 0.2 ml of a suspension of triallyl ester in 1% Tween 80 solution was administered to the eggs of group E, 0.2 ml of a solution of OPQ in 10 mM NaCO3 solution was administered to the eggs of group F, and 0.2 ml of a solution of methyl OPQ in 10 mM NaCO3 solution was administered to the eggs of group G.
Crystal lens was taken out after 48 hours from administration of hydrocortisone sodium succinate and degree of cataract was judged by the criteria according to the Nishigori et al method (Nishigori et al, "Investigative Ophthalmology & Visual Science", Vol. 25, page 1051, 1984).
5 The whole nucleus was hazed in white.

[4] = not told; for Membrane permeation constant: bovine, 960 min
Description: Permeability of various compounds through capsule of crystal bovine lens was examined in accordance with the method mentioned in "Crystal Lens and Biochemical Mechanism thereof" (pages 436-440) edited by Shuzo Iwata (Medical Aoi Publisher). Each compound dissolved in 10 mM HEPES buffer (containing 1% DMSO in the case of PQQ triesters) was put in an apparatus for measurement of membrane permeation constant and left to stand for 16 hours at 35° C. and then amount of the compound which migrated was measured by ultraviolet absorption (243 nm for PQQ·2Na and 255 nm for PQQ esters) to obtain membrane permeation constant.

[5] = test system: male mice SPF-ICR; test: Acute toxicity test (1), intraperitoneal; conditions: mouse, in vivo, ip
Description: To male mice SPF-ICR five weeks old (supplied by Japan Charles River Co.) were intraperitoneally administered PQQ·2Na, PQQ trimethyl ester, PQQ triallyl ester, OPQ, 1-methylpropyl OPQ, 2-methylthioethyl OPQ and benzyl OPQ at dosages of 40, 80, 160 and 200 mg per kg of body weight of mouce, respectively and they were bred for 14 days at 25° C. One group consisted of 8 mice. For administration, PQQ·2Na and OPQ and esters thereof were dissolved in physiological saline and PQQ trimethyl ester and PQQ triallyl ester were suspended in 1% Tween 80-containing physiological saline, respectively.

[6] = test system: mice; conditions: mouse, in vivo, ip
Description: One group consisted of 8 mice. For administration, PQQ·2Na and OPQ and esters thereof were dissolved in physiological saline and PQQ trimethyl ester and PQQ triallyl ester were suspended in 1% Tween 80-containing physiological saline, respectively.
PQQ·2Na, PQQ trimethyl ester, PQQ triallyl ester and OPQ and esters thereof were intraperitoneally administered to mice and they were bred in the same manner as in the above acute toxicity test. Urine of the mice was taken every day and glucose concentration was measured using clinical examination reagent (trademark: […] 2 manufactured by Miles.Sankyo Co.).

[7] = test system: mice; test: Kidney Toxicity Determined by Blood Examination (1); format: in vivo; conditions: mouse, in vivo
Description: After lapse of one day from the administration, the mice were fasted (with feeding only water) and then after 18 hours, blood was collected and serum was obtained therefrom. Glucose, urea nitrogen and creatinine in the serum were examined by clinical examination reagent (trademark: FUJI DRYCHEMSLIDE manufactured by Fuji Photo Film Co., Ltd.).

## O=C(O)c1cc(C(=O)O)c2c(n1)c1nc(CO)oc1c1cc(C(=O)O)[nH]c12 [Hydroxymethyl OPQ, hydroxymethyl OPQ (R=CH2 OH)]
[1]; Example 2, Table 7
  IC50: 3.52 µM
[2]; Example 4, Table 9
  IC50: 305 µM

## Cc1nc2c3nc(C(=O)O)cc(C(=O)O)c3c3[nH]c(C(=O)O)cc3c2o1 [Methyl OPQ, methyl OPQ (R=CH3)]
[1]; Example 2, Table 7
  IC50: 1.64 µM
[2]; Example 4, Table 9
  IC50: 153 µM
[3]
  Judgement 1 (No haze was seen in crystal lens), eggs: 1/5
  Judgement 3 (Clear ring of white haze was seen in crystal lens), eggs: 2/5
  Judgement 4 ~ 5 (white haze of pinhole size in nucleus ~ whole nucleus hazed in white), eggs: 2/5

## C=CCOC(=O)c1cc(C(=O)OCC=C)c2c(n1)c1ncoc1c1cc(C(=O)OCC=C)[nH]c12 [OPQ triallyl ester]
[1]; Example 2, Table 7
  IC50: 2.39 µM

## O=C(OCc1ccccc1)c1cc(C(=O)OCc2ccccc2)c2c(n1)C(=O)C(=O)c1cc(C(=O)OCc3ccccc3)[nH]c1-2 [PQQ tribenzyl ester]
[1]; Example 1, Table 6
  IC50: 0.0769 µM
[2]; Example 3, Table 8
  IC50: 31 µM

## CCOC(=O)c1cc(C(=O)OCC)c2c(n1)C(=O)C(=O)c1cc(C(=O)OCC)[nH]c1-2 [PQQ triethyl ester]
[4]
  Membrane permeation constant: 1.22 ± 0.37 10 ^-7 cm^2 · sec^-1
  membrane permeation constant relative to that of PQQ.2Na: about twice

## O=C(O)c1cc(C(=O)O)c2c(n1)C(=O)C(=O)c1cc(C(=O)O)[nH]c1-2 [PQQ.2Na, reference compound]
[5]; 40 mg/kg
  mice died: No mice died
[5]; 80 mg/kg
  mice died: five mice died
[5]; 160 mg/kg
  mice died: eight mice all died
[5]; 200 mg/kg
  mice died: eight mice all died
[6]
  glucose detected in urine: glucose was detected in urine
[6]; 20 mg/kg
  glucose in urine: -
[6]; 40 mg/kg
  glucose in urine: -
[6]; 80 mg/kg
  glucose in urine: -
[7]
  contents of glucose, urea nitrogen and creatinine in serum: Sharp reduction of glucose and much increase of urea nitrogen and creatinine
  kidney toxicity: kidney toxicity was recognized
[7]; 20 mg/kg
  Creatinine: 0.8 ± 0.1 mg/dL
  Glucose: 70 ± 13 mg/dL
  Urea nitrogen: 25 ± 3 mg/dL
[7]; 40 mg/kg
  Creatinine: 2.3 ± 1.0 mg/dL
  Glucose: 60 ± 12 mg/dL
  Urea nitrogen: 110 ± 38 mg/dL
[7]; 80 mg/kg
  Creatinine: 3.4 ± 0.4 mg/dL
  Glucose: 57 ± 15 mg/dL
  Urea nitrogen: 130 ± 18 mg/dL
[7]; 160 mg/kg
  Creatinine: 4.1 ± 0.2 mg/dL
  Glucose: 35 ± 7 mg/dL
  Urea nitrogen: 139 ± 3 mg/dL
[1]; Example 1, Table 6
  IC50: 0.0383 µM
[2]; Example 3, Table 8
  IC50: 64 µM
[3]
  Judgement 1 (No haze was seen in crystal lens), eggs: 1/5
  Judgement 2 (Slight opaque ring was seen in crystal lens), eggs: 2/5
  Judgement 4 ~ 5 (white haze of pinhole size in nucleus ~ whole nucleus hazed in white), eggs: 2/5
[4]
  Membrane permeation constant: 0.68 ± 0.36 10 ^-7 cm^2 · sec^-1

## PQQ dimethyl ester
[1]; Example 1, Table 6
  IC50: 0.0106 µM

## PQQ monomethyl ester
[1]; Example 1, Table 6
  IC50: 0.0609 µM
